From US20160177395A1, “BIOMARKERS FOR THE PREDICTION OF RENAL INJURY” (priority 2007, published 2016)
Where “and” joins values, the source holds several entries; their conditions need not be identical. Identical values can stand only once.

Tests used:
[1] = tested on: Sprague-Dawley Crl:CD(SD) rats; conditions: rat, in vivo;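 also: control rats received saline intraperitoneally, and the organs examined were adrenals, brain, kidneys, liver, spleen and thymus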
Protocol: Control animals were treated intraperitoneal with saline.
Randomization and group allocation: prior to treatment, the animals were assigned to the experimental groups based on their body weight. Mean body weight of each group at randomization was not deviate±20% of the mean population weight. Males and females were randomized separately. For the randomization, a computer program was used.
The day before autopsy, urinalysis was performed and blood samples were taken for hematology and clinical chemistry examinations.
On the day of autopsy the animals were anaesthetized with isoflurane, blood was collected for PBMC isolation then subjected to autopsy. Tissues and organs (adrenals, brain, kidneys, liver, spleen and thymus) were weighed and subjected to gross pathological and histopathological examinations.

[2] = tested on: kidney tissues of treated or untreated rats; experiment: Real-time qRT-PCR of signature amplicons, validation stage, labeled and un-labeled samples (Table 23); conditions: for AI045075_DB71_seg6 normalized qRT-PCR expression (Interferon stimulated exonuclease 20 (ISG20) transcript) / H31883_DB71_seg13 normalized qRT-PCR expression (Cyclin-G1 (CCNG1) transcript) / MUSCYCG1R_DB81_seg19-20 normalized qRT-PCR expression / W41270_DB81_seg11 normalized qRT-PCR expression (tumor necrosis factor receptor superfamily, member 12a transcript) / W64472_DB81_seg2 normalized qRT-PCR expression (Interferon stimulated exonuclease 20 (ISG20) transcript) / W83813_DB81_seg27 normalized qRT-PCR expression: labeled samples, listed as ValpA
How it was run: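 Each of four signature genes measured as wild-type and alternative-splice amplicons by qRT-PCR in treated or untreated rat kidney. Normalization was two-step: housekeeping-gene factor, then inter-plate correction from shared samples on a shuffled control plate; final values rescaled for display.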

[3] = day1, kidney of individual male/female rats
[4] = day5, kidney of individual male/female rats
[5] = day28, kidney of individual male/female rats

CCCC(CCC)C(=O)O [Valproic acid]
Clinical pathology [1]: Slightly lower total protein and Albumin values were found in males | Histopathology / renal damage [1]: No renal damage was found | Water consumption [1]: Increase in Valproic acid treated females | Water consumption, males [1]: Sight decrease during the last week | AI045075_DB71_seg6 normalized qRT-PCR expression (Interferon stimulated exonuclease 20 (ISG20) transcript) [2, 3]: 1.006 and 1.436 and 2.189 and 0.983 and 1.098 and 1.522 | H31883_DB71_seg13 normalized qRT-PCR expression (Cyclin-G1 (CCNG1) transcript) [2, 3]: 1.488 and 1.506 and 0.999 and 0.721 and 1.041 | MUSCYCG1R_DB81_seg19-20 normalized qRT-PCR expression [2, 3]: 2.289 and 1.581 and 1.842 and 1.929 and 0.637 and 0.9 | W41270_DB81_seg11 normalized qRT-PCR expression (tumor necrosis factor receptor superfamily, member 12a transcript) [2, 3]: 1.134 and 0.939 and 1.405 and 1.225 and 0.547 and 1.544 | W64472_DB81_seg2 normalized qRT-PCR expression (Interferon stimulated exonuclease 20 (ISG20) transcript) [2, 3]: 1.082 and 1.123 and 1.887 and 0.995 and 1.092 and 1.596 | W83813_DB81_seg27 normalized qRT-PCR expression [2, 3]: 1.179 and 0.912 and 1.495 and 1.13 and 0.818 and 1.366 | AI045075_DB71_seg6 normalized qRT-PCR expression (Interferon stimulated exonuclease 20 (ISG20) transcript) [2, 4]: 1.017 and 1.145 and 0.997 and 0.883 and 1.052 and 0.877 | H31883_DB71_seg13 normalized qRT-PCR expression (Cyclin-G1 (CCNG1) transcript) [2, 4]: 0.846 and 0.85 and 0.975 and 0.791 and 0.694 and 1.082 | MUSCYCG1R_DB81_seg19-20 normalized qRT-PCR expression [2, 4]: 1.019 and 1.509 and 1.372 and 0.94 and 1.425 and 1.585 | W41270_DB81_seg11 normalized qRT-PCR expression (tumor necrosis factor receptor superfamily, member 12a transcript) [2, 4]: 0.631 and 1.428 and 1.002 and 0.617 and 0.997 | W64472_DB81_seg2 normalized qRT-PCR expression (Interferon stimulated exonuclease 20 (ISG20) transcript) [2, 4]: 0.92 and 1.226 and 1.169 and 0.702 and 0.812 and 0.894 | W83813_DB81_seg27 normalized qRT-PCR expression [2, 4]: 0.778 and 1.17 and 0.876 and 0.926 and 1.146 and 0.992 | AI045075_DB71_seg6 normalized qRT-PCR expression (Interferon stimulated exonuclease 20 (ISG20) transcript) [2, 5]: 0.696 and 0.906 and 0.669 and 0.822 and 0.77 and 0.719 | H31883_DB71_seg13 normalized qRT-PCR expression (Cyclin-G1 (CCNG1) transcript) [2, 5]: 0.732 and 0.774 and 0.713 and 0.872 and 0.57 and 0.979 | MUSCYCG1R_DB81_seg19-20 normalized qRT-PCR expression [2, 5]: 0.588 and 1.731 and 0.589 and 1.171 and 1.037 and 0.52 | W41270_DB81_seg11 normalized qRT-PCR expression (tumor necrosis factor receptor superfamily, member 12a transcript) [2, 5]: 0.543 and 0.95 and 0.459 and 1.044 and 0.587 and 1.011 | W64472_DB81_seg2 normalized qRT-PCR expression (Interferon stimulated exonuclease 20 (ISG20) transcript) [2, 5]: 1.085 and 0.788 and 0.965 and 1.51 and 0.478 and 0.991 | W83813_DB81_seg27 normalized qRT-PCR expression [2, 5]: 0.493 and 1.254 and 0.46 and 0.875 and 0.761 and 1.208 | Label: true label (Normal/Toxic), known renal toxic effect ([2]; rat, in vivo): Normal
